# According to patent publication US8703961B2, “Thiazole derivatives for the treatment of diseases such as cancer” (Merck Patent GmbH, priority 2009, dated 2014):
# What was measured:
# Assay in all cases: filter binding kinase assay
# Type in all cases: biochemical
# MAPKAPK5 = target: T1, MAPKAPK5 (Homo sapiens, UniProt Q8IW41); conditions: derived from % inhibition at 1 μM
# T1 construct: purchased
# T1 sequence (Q8IW41 1-473): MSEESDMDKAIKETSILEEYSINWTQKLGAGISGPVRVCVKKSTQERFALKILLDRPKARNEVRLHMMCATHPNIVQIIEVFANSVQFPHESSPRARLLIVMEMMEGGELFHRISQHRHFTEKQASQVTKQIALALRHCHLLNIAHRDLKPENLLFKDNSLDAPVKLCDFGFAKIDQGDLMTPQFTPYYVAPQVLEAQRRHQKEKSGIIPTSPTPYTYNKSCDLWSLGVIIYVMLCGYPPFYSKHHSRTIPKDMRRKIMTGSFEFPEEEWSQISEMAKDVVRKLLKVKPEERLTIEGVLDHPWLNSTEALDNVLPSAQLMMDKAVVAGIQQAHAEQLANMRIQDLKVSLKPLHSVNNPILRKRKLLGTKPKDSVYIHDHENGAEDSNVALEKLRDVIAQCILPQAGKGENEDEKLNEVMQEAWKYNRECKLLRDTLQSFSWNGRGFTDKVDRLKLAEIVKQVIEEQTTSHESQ
# How it was run: (§1)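 Compound was pre-incubated with enzyme and substrate for 5 minutes at room temperature, then the reaction was started with ATP (added solution at 5, 20 or 50 […] depending on kinase). Orthophosphoric acid stopped it, and phosphorylated substrate captured on P81 filters was quantified by scintillation counting.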
# MAP3K11 (MLK3) = target: T2, MAP3K11 (MLK3) (Homo sapiens, UniProt Q16584); conditions: for IC50: derived from % inhibition at 1 μM
# T2 construct: purchased
# How it was run: as §1
# YES1 = target: T3, YES1 (Homo sapiens, UniProt P07947); conditions: derived from % inhibition at 1 μM
# T3 construct: purchased
# How it was run: as §1
# RPS6KA3 = target: T4, RPS6KA3 (Homo sapiens, UniProt P51812); conditions: derived from % inhibition at 1 μM
# T4 construct: purchased
# How it was run: as §1
# ERBB4 = target: T5, ERBB4 (Homo sapiens, UniProt Q15303); conditions: derived from % inhibition at 1 μM
# T5 construct: purchased
# How it was run: as §1
# MYLK = target: T6, MYLK (Homo sapiens, UniProt Q15746); conditions: derived from % inhibition at 1 μM
# T6 construct: purchased
# How it was run: as §1
# EPHB3 = target: T7, EPHB3 (Homo sapiens, UniProt P54753); conditions: derived from % inhibition at 1 μM
# T7 construct: purchased
# T7 sequence (P54753 34-998): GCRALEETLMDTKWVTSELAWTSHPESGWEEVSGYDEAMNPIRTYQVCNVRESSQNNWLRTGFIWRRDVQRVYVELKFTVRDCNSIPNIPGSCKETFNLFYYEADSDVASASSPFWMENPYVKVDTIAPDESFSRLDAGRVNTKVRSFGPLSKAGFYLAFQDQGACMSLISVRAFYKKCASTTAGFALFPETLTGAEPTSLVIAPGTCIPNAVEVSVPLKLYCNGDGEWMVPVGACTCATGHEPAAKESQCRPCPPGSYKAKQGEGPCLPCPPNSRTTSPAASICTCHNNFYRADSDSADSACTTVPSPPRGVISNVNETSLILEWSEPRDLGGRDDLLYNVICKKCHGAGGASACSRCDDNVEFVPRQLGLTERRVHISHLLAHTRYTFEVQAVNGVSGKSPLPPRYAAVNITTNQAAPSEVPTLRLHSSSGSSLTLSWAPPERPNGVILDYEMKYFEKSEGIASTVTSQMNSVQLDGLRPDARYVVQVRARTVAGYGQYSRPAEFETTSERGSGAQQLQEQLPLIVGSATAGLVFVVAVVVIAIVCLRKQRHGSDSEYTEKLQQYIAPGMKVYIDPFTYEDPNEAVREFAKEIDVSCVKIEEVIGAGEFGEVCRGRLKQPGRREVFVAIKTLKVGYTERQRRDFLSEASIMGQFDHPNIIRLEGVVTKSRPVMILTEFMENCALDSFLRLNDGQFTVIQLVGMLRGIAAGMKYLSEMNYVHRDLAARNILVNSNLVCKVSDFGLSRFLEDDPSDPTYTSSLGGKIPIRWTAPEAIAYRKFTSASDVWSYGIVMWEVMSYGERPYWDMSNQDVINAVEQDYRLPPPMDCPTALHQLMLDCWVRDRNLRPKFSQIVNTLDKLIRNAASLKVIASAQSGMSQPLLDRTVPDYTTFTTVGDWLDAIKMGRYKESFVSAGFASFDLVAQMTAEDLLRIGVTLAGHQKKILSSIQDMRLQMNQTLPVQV
# How it was run: as §1
# IRAK4 = target: T8, IRAK4 (Homo sapiens, UniProt Q9NWZ3); conditions: derived from % inhibition at 1 μM
# T8 construct: purchased
# T8 sequence (Q9NWZ3 1-460): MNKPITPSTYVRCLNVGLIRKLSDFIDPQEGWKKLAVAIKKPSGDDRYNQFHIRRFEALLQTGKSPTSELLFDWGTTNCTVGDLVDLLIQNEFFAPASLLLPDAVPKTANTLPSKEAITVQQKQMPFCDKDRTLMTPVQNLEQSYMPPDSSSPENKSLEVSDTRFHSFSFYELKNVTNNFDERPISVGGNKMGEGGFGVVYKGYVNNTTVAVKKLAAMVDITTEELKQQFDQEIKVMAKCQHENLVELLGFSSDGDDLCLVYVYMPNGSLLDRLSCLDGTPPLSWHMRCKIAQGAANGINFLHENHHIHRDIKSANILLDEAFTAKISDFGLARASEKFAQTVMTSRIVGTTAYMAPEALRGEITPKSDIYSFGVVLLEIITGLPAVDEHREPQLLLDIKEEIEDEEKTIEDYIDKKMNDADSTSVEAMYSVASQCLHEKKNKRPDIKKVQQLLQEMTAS
# How it was run: as §1
# T4 sequence (P51812 whole entry, species assumed): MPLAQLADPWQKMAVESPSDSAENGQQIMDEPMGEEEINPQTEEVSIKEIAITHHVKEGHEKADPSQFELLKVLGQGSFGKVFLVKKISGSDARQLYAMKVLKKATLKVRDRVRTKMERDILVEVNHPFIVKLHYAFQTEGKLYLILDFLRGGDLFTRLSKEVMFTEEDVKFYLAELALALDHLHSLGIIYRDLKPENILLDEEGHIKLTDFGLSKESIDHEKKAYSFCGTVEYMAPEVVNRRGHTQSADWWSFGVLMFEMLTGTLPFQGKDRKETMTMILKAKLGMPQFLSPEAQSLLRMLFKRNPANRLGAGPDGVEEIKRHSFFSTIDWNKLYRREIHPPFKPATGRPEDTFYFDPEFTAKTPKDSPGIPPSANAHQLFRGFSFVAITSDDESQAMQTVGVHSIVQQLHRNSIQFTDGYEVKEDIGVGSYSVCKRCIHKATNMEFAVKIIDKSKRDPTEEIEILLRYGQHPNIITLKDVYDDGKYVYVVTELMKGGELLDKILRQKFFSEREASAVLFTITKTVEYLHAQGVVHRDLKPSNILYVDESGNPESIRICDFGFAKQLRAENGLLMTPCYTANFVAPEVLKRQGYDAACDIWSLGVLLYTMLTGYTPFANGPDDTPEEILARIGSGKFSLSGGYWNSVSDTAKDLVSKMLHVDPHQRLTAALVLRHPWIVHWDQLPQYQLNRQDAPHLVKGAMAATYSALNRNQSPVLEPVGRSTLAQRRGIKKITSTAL
# T5 sequence (Q15303 26-1308, species assumed): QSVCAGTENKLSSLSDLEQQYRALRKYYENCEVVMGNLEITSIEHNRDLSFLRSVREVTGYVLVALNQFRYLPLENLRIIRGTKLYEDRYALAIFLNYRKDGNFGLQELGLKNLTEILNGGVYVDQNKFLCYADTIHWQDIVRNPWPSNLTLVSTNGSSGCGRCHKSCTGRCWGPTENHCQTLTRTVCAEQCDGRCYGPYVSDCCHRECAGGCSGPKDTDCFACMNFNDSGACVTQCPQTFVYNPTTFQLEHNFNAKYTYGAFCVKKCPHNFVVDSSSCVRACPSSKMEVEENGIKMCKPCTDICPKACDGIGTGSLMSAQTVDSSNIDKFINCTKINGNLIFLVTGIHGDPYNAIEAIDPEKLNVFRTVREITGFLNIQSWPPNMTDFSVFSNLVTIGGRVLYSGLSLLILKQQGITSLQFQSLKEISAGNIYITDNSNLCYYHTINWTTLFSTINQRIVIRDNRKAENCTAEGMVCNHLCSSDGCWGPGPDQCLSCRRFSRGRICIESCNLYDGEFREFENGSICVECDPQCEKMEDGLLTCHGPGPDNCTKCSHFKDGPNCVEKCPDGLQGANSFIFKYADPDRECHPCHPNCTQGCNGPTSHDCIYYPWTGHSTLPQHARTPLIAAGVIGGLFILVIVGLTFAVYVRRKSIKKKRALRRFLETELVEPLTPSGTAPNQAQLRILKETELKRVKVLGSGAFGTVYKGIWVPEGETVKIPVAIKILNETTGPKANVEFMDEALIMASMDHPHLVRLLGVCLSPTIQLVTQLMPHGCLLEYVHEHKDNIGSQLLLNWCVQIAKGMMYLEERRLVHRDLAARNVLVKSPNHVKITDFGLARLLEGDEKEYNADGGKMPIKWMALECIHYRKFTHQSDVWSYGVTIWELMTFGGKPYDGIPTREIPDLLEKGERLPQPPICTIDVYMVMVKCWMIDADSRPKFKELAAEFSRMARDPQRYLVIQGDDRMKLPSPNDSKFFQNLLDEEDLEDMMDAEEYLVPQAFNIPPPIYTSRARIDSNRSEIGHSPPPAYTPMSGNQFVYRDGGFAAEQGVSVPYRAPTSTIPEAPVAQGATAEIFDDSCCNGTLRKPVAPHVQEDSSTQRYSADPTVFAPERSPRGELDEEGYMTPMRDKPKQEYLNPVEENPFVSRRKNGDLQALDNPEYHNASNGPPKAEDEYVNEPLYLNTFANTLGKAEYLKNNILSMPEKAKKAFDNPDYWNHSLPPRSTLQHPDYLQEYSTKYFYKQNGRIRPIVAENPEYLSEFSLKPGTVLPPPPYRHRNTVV
# T3 sequence (P07947 whole entry, species assumed): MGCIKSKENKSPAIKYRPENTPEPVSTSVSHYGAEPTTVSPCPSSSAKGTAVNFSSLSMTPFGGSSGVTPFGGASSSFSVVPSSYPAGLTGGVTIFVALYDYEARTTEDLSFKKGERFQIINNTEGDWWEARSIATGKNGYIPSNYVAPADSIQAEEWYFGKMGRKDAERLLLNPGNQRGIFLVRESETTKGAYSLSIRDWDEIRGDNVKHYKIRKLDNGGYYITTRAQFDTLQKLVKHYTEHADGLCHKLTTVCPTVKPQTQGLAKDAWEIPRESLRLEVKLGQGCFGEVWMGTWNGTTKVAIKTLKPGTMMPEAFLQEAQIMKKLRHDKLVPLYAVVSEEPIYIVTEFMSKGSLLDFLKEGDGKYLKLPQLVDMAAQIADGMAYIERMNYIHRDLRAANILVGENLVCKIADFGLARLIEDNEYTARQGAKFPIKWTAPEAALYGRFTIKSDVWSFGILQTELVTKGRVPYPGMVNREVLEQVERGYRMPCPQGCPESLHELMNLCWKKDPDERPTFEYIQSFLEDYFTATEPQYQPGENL
# T2 sequence (Q16584 whole entry, species assumed): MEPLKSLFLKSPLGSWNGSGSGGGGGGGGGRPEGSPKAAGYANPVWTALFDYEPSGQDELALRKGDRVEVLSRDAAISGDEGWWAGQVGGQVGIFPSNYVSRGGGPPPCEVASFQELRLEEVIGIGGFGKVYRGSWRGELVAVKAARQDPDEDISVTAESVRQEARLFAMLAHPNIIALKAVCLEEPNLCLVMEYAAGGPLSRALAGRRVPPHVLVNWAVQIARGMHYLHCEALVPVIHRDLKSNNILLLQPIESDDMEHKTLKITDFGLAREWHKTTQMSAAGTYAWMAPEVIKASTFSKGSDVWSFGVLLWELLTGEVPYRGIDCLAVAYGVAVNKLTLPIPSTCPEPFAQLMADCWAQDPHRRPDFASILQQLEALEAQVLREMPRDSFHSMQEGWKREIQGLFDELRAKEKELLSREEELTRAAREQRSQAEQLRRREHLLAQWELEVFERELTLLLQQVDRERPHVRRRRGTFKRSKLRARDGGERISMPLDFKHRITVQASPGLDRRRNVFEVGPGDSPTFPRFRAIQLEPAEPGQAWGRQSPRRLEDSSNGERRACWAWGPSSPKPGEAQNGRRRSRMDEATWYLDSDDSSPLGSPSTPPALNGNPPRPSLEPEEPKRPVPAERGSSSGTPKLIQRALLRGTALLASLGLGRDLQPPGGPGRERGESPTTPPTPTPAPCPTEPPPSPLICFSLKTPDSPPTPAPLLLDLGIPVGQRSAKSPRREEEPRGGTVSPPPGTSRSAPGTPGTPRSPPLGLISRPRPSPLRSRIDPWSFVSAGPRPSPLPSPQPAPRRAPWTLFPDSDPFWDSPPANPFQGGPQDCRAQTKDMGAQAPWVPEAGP
Structure (SMILES),IC50 (MAPKAPK5) [nM],IC50 (MAP3K11 (MLK3)) [nM],IC50 (YES1) [nM],IC50 (RPS6KA3) [nM],IC50 (ERBB4) [nM],IC50 (MYLK) [nM],IC50 (EPHB3) [nM],IC50 (IRAK4) [nM],remaining activity at 1 µM (MAP3K11 (MLK3); read-out: residual kinase activity MLK3) [%]
"c1ccc(Cc2c[nH]c3ncsc23)cc1 [Compound A7, 6-benzyl-4H-pyrrolo[2,3-d]thiazole]",> 1000,10000 to 100000,> 1000,1000 to 10000,10000 to 100000,> 1000,> 1000,> 1000,–
"Nc1ncsc1C#Cc1cnc2[nH]ccc2c1 [Compound A22, 5-(1H-pyrrolo[2,3-b]pyridin-5-ylethynyl)thiazol-4-ylamine]",10000 to 100000,10 to 1000,1000 to 10000,10000 to 100000,> 1000,> 1000,10000 to 100000,> 1000,23
"CC(C)(C)OC(=O)Nc1nc(-c2ccncc2)sc1C#CCN1CCOCC1 [Compound A25, tert-butyl[5-(3-morpholin-4-ylprop-1-ynyl)-2-pyridin-4-ylthiazol-4-yl]-carbamate]",> 1000,> 1000,> 1000,> 1000,> 1000,> 1000,> 1000,10000 to 100000,–
"CC(C)(C)OC(=O)Nc1ncsc1C#CCN1C(=O)c2ccccc2C1=O [Compound A26, tert-butyl{5-[3-(1,3-dioxo-1,3-dihydroisoindol-2-yl)prop-1-ynyl]-thiazol-4-yl}carbamate]",1000 to 10000,1000 to 10000,> 1000,> 1000,> 1000,> 1000,1000 to 10000,10000 to 100000,–
"Nc1ncsc1C#Cc1cccc(O)c1 [Compound A27, 3-(4-aminothiazol-5-ylethynyl)phenol]",10000 to 100000,10000 to 100000,> 1000,1000 to 10000,1000 to 10000,1000 to 10000,1000 to 10000,10000 to 100000,–
